Data: ChEMBL document CHEMBL4138253, “Synthesis and Biological Evaluation of a Series of Bile Acid Derivatives as FXR Agonists for Treatment of NASH” (ACS Med Chem Lett, 2017)
pEC50: −log10 of the molar value.

How the values were obtained:
[1] = target: T1, Bile acid receptor (Homo sapiens) (UniProt Q96RI1); test: Agonist activity at recombinant human GST-tagged FXR LBD (193 to 472 residues) expressed in baculovirus-infected insect cells assessed as recruitment of biotinylated SRC1 peptide measured after 1 hr by Alphascreen assay relative to CDCA
T1 sequence (whole entry): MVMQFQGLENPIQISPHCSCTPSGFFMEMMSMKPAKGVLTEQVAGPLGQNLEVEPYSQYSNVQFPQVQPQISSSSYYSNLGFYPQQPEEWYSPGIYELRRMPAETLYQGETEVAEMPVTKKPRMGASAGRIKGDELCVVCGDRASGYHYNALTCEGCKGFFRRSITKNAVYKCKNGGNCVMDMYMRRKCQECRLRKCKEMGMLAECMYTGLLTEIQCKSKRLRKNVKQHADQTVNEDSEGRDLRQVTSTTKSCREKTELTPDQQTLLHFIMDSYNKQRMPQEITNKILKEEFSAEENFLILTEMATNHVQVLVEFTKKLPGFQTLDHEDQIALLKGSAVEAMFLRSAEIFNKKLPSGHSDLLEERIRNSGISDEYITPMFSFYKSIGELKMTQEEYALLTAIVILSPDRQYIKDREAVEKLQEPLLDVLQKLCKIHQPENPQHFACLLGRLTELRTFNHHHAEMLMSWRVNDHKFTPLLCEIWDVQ

Bile acid receptor [2] = target: T2, Bile acid receptor (Homo sapiens, UniProt Q96RI1); test: Agonist activity at recombinant human GST-tagged FXR LBD (193 to 472 residues) expressed in baculovirus-infected insect cells assessed as recruitment of biotinylated SRC1 peptide measured after 1 hr by Alphascreen assay
T2 sequence (Q96RI1 whole entry): T1 sequence (whole entry)

[3] = target: T3, G-protein coupled bile acid receptor 1 (Homo sapiens, UniProt Q8TDU6); test: Agonist activity at human TGR5 expressed in HEK293 cells assessed as increase in intracellular cAMP level after 1 hr by TR-FRET assay; type: functional, cell-based
T3 sequence (Q8TDU6 whole entry): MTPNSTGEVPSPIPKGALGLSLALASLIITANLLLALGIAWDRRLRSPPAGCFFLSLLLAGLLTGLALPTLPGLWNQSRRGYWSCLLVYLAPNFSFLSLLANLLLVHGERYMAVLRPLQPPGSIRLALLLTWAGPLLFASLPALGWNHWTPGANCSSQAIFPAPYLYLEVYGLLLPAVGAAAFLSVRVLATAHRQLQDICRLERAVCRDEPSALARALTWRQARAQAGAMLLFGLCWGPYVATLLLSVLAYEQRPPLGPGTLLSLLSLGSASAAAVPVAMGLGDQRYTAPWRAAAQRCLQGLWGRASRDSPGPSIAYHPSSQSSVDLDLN

Homo sapiens = organism: Homo sapiens; test: Selectivity ratio of EC50 for recombinant human GST-tagged FXR LBD (193 to 472 residues) expressed in baculovirus-infected insect cells to EC50 for human TGR5 expressed in HEK293 cells
Bile acid receptor [4] = target: T2, Bile acid receptor; test: Agonist activity at FXR (unknown origin) measured after 16 hrs in presence of CCF4-AM dye by cell-based GeneBlazer FRET assay
[5] = target: T1, Bile acid receptor (Homo sapiens); test: Agonist activity at FXR (unknown origin) measured after 16 hrs in presence of CCF4-AM dye by cell-based GeneBlazer FRET assay relative to CDCA

SMILES	Efficacy [1] [%]	pEC50 (Bile acid receptor [2])	pEC50 [3]	Ratio EC50 (Homo sapiens)	pEC50 (Bile acid receptor [4])	Efficacy [5] [%]
CC[C@H]1[C@@H](O)[C@@H]2[C@H](CC[C@]3(C)[C@@H]([C@H](C)CCNC(=O)OC4CCC4)CC[C@@H]23)[C@@]2(C)CC[C@@H](O)C[C@@H]12	100	6.82	–	–	–	–
CC[C@H]1[C@@H](O)[C@@H]2[C@H](CC[C@]3(C)[C@@H]([C@H](C)CCNC(=O)NC4CC4)CC[C@@H]23)[C@@]2(C)CC[C@@H](O)C[C@@H]12	104	7.15	6.38	6	–	–
CC[C@H]1[C@@H](O)[C@@H]2[C@H](CC[C@]3(C)[C@@H]([C@H](C)CCc4nn[nH]n4)CC[C@@H]23)[C@@]2(C)CC[C@@H](O)C[C@@H]12	153	–	–	30	–	–
CC[C@H]1[C@@H](O)[C@@H]2[C@H](CC[C@]3(C)[C@@H]([C@H](C)CCNC(=O)OCc4ccccc4)CC[C@@H]23)[C@@]2(C)CC[C@@H](O)C[C@@H]12	130	6.52	–	–	–	–
CC[C@H]1[C@@H](O)[C@@H]2[C@H](CC[C@]3(C)[C@@H]([C@H](C)CCC4NC(=O)NC4=O)CC[C@@H]23)[C@@]2(C)CC[C@@H](O)C[C@@H]12 (some centres not stated)	202	5.57	–	–	–	–
CC[C@H]1[C@@H](O)[C@@H]2[C@H](CC[C@]3(C)[C@@H]([C@H](C)CCNC(=O)OC4CCCCC4)CC[C@@H]23)[C@@]2(C)CC[C@@H](O)C[C@@H]12	140	6.52	–	–	–	–
CCOC(=O)NCC[C@@H](C)[C@H]1CC[C@H]2[C@@H]3[C@H](O)[C@H](CC)[C@@H]4C[C@H](O)CC[C@]4(C)[C@H]3CC[C@]12C	138	6.55	6.55	1	7.00	174
CC[C@H]1[C@@H](O)[C@@H]2[C@H](CC[C@]3(C)[C@@H]([C@H](C)CCNC(=O)N4CC[C@H](O)C4)CC[C@@H]23)[C@@]2(C)CC[C@@H](O)C[C@@H]12	115	7.10	6.80	2	–	–
CC[C@H]1[C@@H](O)[C@@H]2[C@H](CC[C@]3(C)[C@@H]([C@H](C)CCC(C)=O)CC[C@@H]23)[C@@]2(C)CC[C@@H](O)C[C@@H]12	263	6.00	–	–	–	–
CC[C@H]1[C@@H](O)[C@@H]2[C@H](CC[C@]3(C)[C@@H]([C@H](C)CCC(=O)O)CC[C@@H]23)[C@@]2(C)Cc3cn[nH]c3C[C@@H]12	136	6.52	–	–	–	–
CC[C@H]1[C@@H](O)[C@@H]2[C@H](CC[C@]3(C)[C@@H]([C@H](C)CCCNC(N)=O)CC[C@@H]23)[C@@]2(C)CC[C@@H](O)C[C@@H]12	95	6.89	–	–	–	–
CC[C@H]1[C@@H](O)[C@@H]2[C@H](CC[C@]3(C)[C@@H]([C@H](C)CCCNS(=O)(=O)c4ccccc4)CC[C@@H]23)[C@@]2(C)CC[C@@H](O)C[C@@H]12	79	6.64	–	–	–	–
CC[C@H]1[C@@H](O)[C@@H]2[C@H](CC[C@]3(C)[C@@H]([C@H](C)CCC(=O)S)CC[C@@H]23)[C@@]2(C)CC[C@@H](O)C[C@@H]12	226	6.62	–	–	–	–
CC[C@H]1[C@@H](O)[C@@H]2[C@H](CC[C@]3(C)[C@@H]([C@H](C)CCNC(=O)OC(C)C)CC[C@@H]23)[C@@]2(C)CC[C@@H](O)C[C@@H]12	162	6.52	–	–	–	–
CC[C@H]1[C@@H](O)[C@@H]2[C@H](CC[C@]3(C)[C@@H]([C@H](C)CCC(=O)NCC(=O)O)CC[C@@H]23)[C@@]2(C)CC[C@@H](O)C[C@@H]12	135	6.54	–	–	–	–
CC[C@H]1[C@@H](O)[C@@H]2[C@H](CC[C@]3(C)[C@@H]([C@H](C)CCNC(C)=O)CC[C@@H]23)[C@@]2(C)CC[C@@H](O)C[C@@H]12	81	6.82	–	–	–	–
CC[C@H]1[C@@H](O)[C@@H]2[C@H](CC[C@]3(C)[C@@H]([C@H](C)CCNC(=O)OC)CC[C@@H]23)[C@@]2(C)CC[C@@H](O)C[C@@H]12	149	6.52	–	–	–	–

SMILES	Efficacy [1] [%]	pEC50 (Bile acid receptor [2])	pEC50 [3]	Ratio EC50 (Homo sapiens)	pEC50 (Bile acid receptor [4])	Efficacy [5] [%]
CC[C@H]1[C@@H](O)[C@@H]2[C@H](CC[C@]3(C)[C@@H]([C@H](C)CCNC(=O)c4ccccn4)CC[C@@H]23)[C@@]2(C)CC[C@@H](O)C[C@@H]12	88	7.52	–	–	–	–
CC[C@H]1[C@@H](O)[C@@H]2[C@H](CC[C@]3(C)[C@@H]([C@H](C)CCNS(=O)(=O)C4CC4)CC[C@@H]23)[C@@]2(C)CC[C@@H](O)C[C@@H]12	87	6.64	–	–	–	–
CC[C@H]1[C@@H](O)[C@@H]2[C@H](CC[C@]3(C)[C@@H]([C@H](C)CCC(=O)O)CC[C@@H]23)[C@@]2(C)CCC(F)(F)C[C@@H]12	109	5.96	–	–	–	–
CC[C@H]1[C@@H](O)[C@@H]2[C@H](CC[C@]3(C)[C@@H]([C@H](C)CCCNS(C)(=O)=O)CC[C@@H]23)[C@@]2(C)CC[C@@H](O)C[C@@H]12	85	6.96	–	–	–	–
CC[C@H]1[C@@H](O)[C@@H]2[C@H](CC[C@]3(C)[C@@H]([C@H](C)CCNS(=O)(=O)c4ccccc4)CC[C@@H]23)[C@@]2(C)CC[C@@H](O)C[C@@H]12	117	6.33	–	–	–	–
CC[C@H]1[C@@H](O)[C@@H]2[C@H](CC[C@]3(C)[C@@H]([C@H](C)CCNC(=O)OCc4cccs4)CC[C@@H]23)[C@@]2(C)CC[C@@H](O)C[C@@H]12	142	6.64	–	–	6.96	168
CC[C@H]1[C@@H](O)[C@@H]2[C@H](CC[C@]3(C)[C@@H]([C@H](C)CCNC(=O)O[C@H]4CCOC4)CC[C@@H]23)[C@@]2(C)CC[C@@H](O)C[C@@H]12	109	7.05	6.62	3	7.10	167
CC[C@H]1[C@@H](O)[C@@H]2[C@H](CC[C@]3(C)[C@@H]([C@H](C)CCC(N)=O)CC[C@@H]23)[C@@]2(C)CC[C@@H](O)C[C@@H]12	142	6.22	–	–	–	–
CC[C@H]1[C@@H](O)[C@@H]2[C@H](CC[C@]3(C)[C@@H]([C@H](C)CCC(=O)O)CC[C@@H]23)[C@@]2(C)CCCC[C@@H]12	126	6.40	–	–	–	–
CC[C@H]1[C@@H](O)[C@@H]2[C@H](CC[C@]3(C)[C@@H]([C@H](C)CCNC(N)=O)CC[C@@H]23)[C@@]2(C)CC[C@@H](O)C[C@@H]12	104	6.64	–	–	–	–
CC[C@H]1[C@@H](O)[C@@H]2[C@H](CC[C@]3(C)[C@@H]([C@H](C)CCC(=O)O)CC[C@@H]23)[C@@]2(C)CCC3(CC3)C[C@@H]12	68	6.15	–	–	–	–
CC[C@H]1[C@@H](O)[C@@H]2[C@H](CC[C@]3(C)[C@@H]([C@H](C)CCNS(C)(=O)=O)CC[C@@H]23)[C@@]2(C)CC[C@@H](O)C[C@@H]12	128	6.55	–	–	–	–
CC[C@H]1[C@@H](O)[C@@H]2[C@H](CC[C@]3(C)[C@@H]([C@H](C)CCC(=O)O)CC[C@@H]23)[C@@]2(C)CCC(C)C[C@@H]12 (some centres not stated)	49	5.82	–	–	–	–
CC[C@H]1[C@@H](O)[C@@H]2[C@H](CC[C@]3(C)[C@@H]([C@H](C)CCCNC(=O)N4CC[C@H](O)C4)CC[C@@H]23)[C@@]2(C)CC[C@@H](O)C[C@@H]12	129	6.43	–	–	–	–
CC[C@H]1[C@@H](O)[C@@H]2[C@H](CC[C@]3(C)[C@@H]([C@H](C)CCC(=O)O)CC[C@@H]23)[C@@]2(C)CC[C@@H](OC)C[C@@H]12	108	5.74	–	–	–	–
CC[C@H]1[C@@H](O)[C@@H]2[C@H](CC[C@]3(C)[C@@H]([C@H](C)CCNC(=O)O[C@@H]4CCOC4)CC[C@@H]23)[C@@]2(C)CC[C@@H](O)C[C@@H]12	100	6.92	–	–	7.10	170
